From the supplement of paper PMC12592484

Key:
Test in all cases: drug sensitivity score (DSS2, normalised partial AUC of dose-response, 72 h CellTiter-Glo viability) (DSS (dimensionless)); higher = more sensitive (stronger growth inhibition / cytotoxicity); extreme values may be limits of the assay
CAF#2 = system: CAF#2 (primary prostate cancer-associated fibroblasts of iCAF-like type)
Procedure, shortened: (§1)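 In BREEZE, the drug sensitivity score was derived as a partial area under a fitted logistic dose–response curve over the log of that curve's upper asymptote; a higher score marks a more sensitive response. The input came from low-passage primary prostate cancer-associated fibroblasts, PF179T, WPMY-1, LNCaP and 22Rv1 cells, each seeded into 384-well plates with compounds pre-dispensed at five doses spanning a 10,000-fold range. CellTiter-Glo 2.0 luminescence after 72 h gave viability, which was normalized to vehicle and positive-control wells.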

PF179T = system: PF179T
Procedure, shortened: as §1

WPMY-1 = system: WPMY-1
Procedure, shortened: as §1

LNCAP = system: LNCAP
Procedure, shortened: as §1

22Rv1 = system: 22Rv1
Procedure, shortened: as §1

CAF#6 = system: CAF#6 (primary prostate cancer-associated fibroblasts of iCAF-like type)
Procedure, shortened: as §1

CAF#4 = system: CAF#4 (primary prostate cancer-associated fibroblasts of iCAF-like type)
Procedure, shortened: as §1

CAF#7 = system: CAF#7 (primary prostate cancer-associated fibroblasts of myCAF-like type)
Procedure, shortened: as §1

CAF#3 = system: CAF#3 (primary prostate cancer-associated fibroblasts of myCAF-like type)
Procedure, shortened: as §1

CAF#1 = system: CAF#1 (primary prostate cancer-associated fibroblasts of myCAF-like type)
Procedure, shortened: as §1

CAF#5 = system: CAF#5 (primary prostate cancer-associated fibroblasts of myCAF-like type)
Procedure, shortened: as §1

SMILES | drug sensitivity score (CAF#2) | drug sensitivity score (PF179T) | drug sensitivity score (WPMY-1) | drug sensitivity score (LNCAP) | drug sensitivity score (22Rv1) | drug sensitivity score (CAF#6) | drug sensitivity score (CAF#4) | drug sensitivity score (CAF#7) | drug sensitivity score (CAF#3) | drug sensitivity score (CAF#1) | drug sensitivity score (CAF#5)
CC1(C)CNc2cc(NC(=O)c3cccnc3NCc3ccncc3)ccc21 [Motesanib] (tested concentration range 1-10000 nM) | 2.7 | 0 | 0 | 5.1 | 0 | 2.1 | 0.7 | 3.7 | 5.9 | 1.4 | 2.4
CCCN(CCC)C(=O)C1=Cc2ccc(-c3ccc(C(=O)N4CCCC4)cc3)cc2N=C(N)C1 [Motolimod] (tested concentration range 1-10000 nM) | 1 | 0 | 0.3 | 3.2 | 1.1 | 1.5 | 0 | 0 | 1.7 | 0.4 | 0
FC(F)(F)c1ccc(/C=C/c2nc(COc3ccc(CCCCn4ccnn4)cc3)co2)cc1 [Mubritinib] (tested concentration range 0.1-1000 nM) | 0 | 9.7 | 12 | 11.7 | 5.8 | 0 | 0 | 0 | 0 | 0 | 0
Cc1cc(OCc2nnc(SC3CCCC3)n2-c2cccnc2)ccc1-c1ccc(S(C)(=O)=O)cc1 [NMS-873] (tested concentration range 1-10000 nM) | 8.5 | 15 | 14.6 | 18.4 | 12.4 | 5.9 | 5.7 | 5.1 | 8 | 4.8 | 5.6
Cc1ccc(C(=O)Nc2cccc(C(F)(F)F)c2)cc1Nc1nc(-c2cccnc2)nc2c1cnn2C [NVP-BHG712] (tested concentration range 1-10000 nM) | 3.2 | 0.6 | 9 | 9.6 | 5 | 0 | 1.6 | 0 | 0 | 0 | 1
CN[C@@H](C)C(=O)N[C@H](C(=O)N1CCC[C@H]1c1nc(C(=O)c2ccc(F)cc2)cs1)C1CCCCC1 [NVP-LCL161] (tested concentration range 2.5-25000 nM) | 0.4 | 0 | 3 | 3.7 | 3.4 | 1.9 | 0.3 | 2 | 1.2 | 0 | 0
CC(=O)c1cc2c(o1)C(=O)c1ccccc1C2=O [Napabucasin] (tested concentration range 2-20000 nM) | 22.6 | 21 | 19.8 | 19.5 | 17.7 | 16.8 | 22.4 | 9.5 | 16.4 | 11.2 | 11.7
CC1(C)CCC(c2ccc(Cl)cc2)=C(CN2CCN(c3ccc(C(=O)NS(=O)(=O)c4ccc(N[C@H](CCN5CCOCC5)CSc5ccccc5)c(S(=O)(=O)C(F)(F)F)c4)cc3)CC2)C1 [Navitoclax] (tested concentration range 1-10000 nM) | 0 | 0 | 0.6 | 7.5 | 0 | 3.1 | 7.5 | 0.7 | 0 | 3 | 2.3
CN1C(=O)N[C@H](Cc2c[nH]c3c(Cl)cccc23)C1=O [Necrostatin 2] (tested concentration range 1-10000 nM) | 0 | 0 | 0 | 0 | 0 | 0 | 0 | 0 | 0 | 0 | 0
O=c1ncn2nc(Sc3ccc(F)cc3F)ccc2c1-c1c(Cl)cccc1Cl [Neflamapimod] (tested concentration range 1-10000 nM) | 0 | 0 | 0 | 1.2 | 0.8 | 0 | 0 | 0 | 0 | 0 | 0
COc1nc(N)nc2c1ncn2[C@@H]1O[C@H](CO)[C@@H](O)[C@@H]1O [Nelarabine] (tested concentration range 1-10000 nM) | 0 | 0 | 0 | 0 | 0 | 0 | 0 | 0 | 0 | 0 | 0
CCOc1cc2ncc(C#N)c(Nc3ccc(OCc4ccccn4)c(Cl)c3)c2cc1NC(=O)/C=C/CN(C)C [Neratinib] (tested concentration range 0.1-1000 nM) | 2.1 | 2.4 | 2 | 3.6 | 2.4 | 3.1 | 2.5 | 4.2 | 4.6 | 1.6 | 0
Cc1cn(-c2cc(NC(=O)c3ccc(C)c(Nc4nccc(-c5cccnc5)n4)c3)cc(C(F)(F)F)c2)cn1 [Nilotinib] (tested concentration range 1-10000 nM) | 0.8 | 0 | 0 | 5.3 | 2.1 | 0 | 1.7 | 0 | 0 | 0.8 | 0.2
